Data set [1] can be described thus: AP1903 in vitro effective signaling of cells. It counts as cell-based. The protocol: The fixed dose of AP1903 for injection used, for example, may be 0.4 mg/kg intravenously infused over 2 hours. The amount of AP1903 needed in vitro for effective signaling of cells is about 10-100 nM (MW: 1412 Da). This equates to 14-140 μg/L or ˜0.014-0.14 mg/kg ([…]). The dosage may vary according to the application, and may, in certain examples, be more in the range of 0.1-10 nM, or in the range of 50-150 nM, 10-200 nM, 75-125 nM, 100-500 nM, 100-600 nM, 100-700 nM, 100-800 nM, or 100-900 nM. Doses up to 1 mg/kg were well-tolerated in the Phase I study of AP1903 described above.

For data set [2] the following is noted: cited from earlier work.
For a further data set, the system named is CD3+ΔCD19+ cells. Nature of the data set: Phase 1 clinical trial of iCasp9 T cells after haploidentical stem cell transplantation. It counts as in vivo, human. The source says:
This example presents results of a phase 1 clinical trial using an alternative suicide gene strategy. Briefly, donor peripheral blood mononuclear cells were co-cultured with recipient irradiated EBV-transformed lymphoblastoid cells (40:1) for 72 hrs, allodepleted with a CD25 immunotoxin and then transduced with a retroviral supernatant carrying the iCasp9 suicide gene and a selection marker (ΔCD19); ΔCD19 allowed enrichment to >90% purity via immunomagnetic selection.
Patients developing Grade I GvHD were treated with 0.4 mg/kg AP1903 as a 2-hour infusion. Protocols for administration of AP1903 to patients developing Grade I GvHD were established as follows. Patients developing GvHD after infusion of allodepleted T cells are biopsied to confirm the diagnosis and receive 0.4 mg/kg of AP1903 as a 2 h infusion. […] Patients developing grades 2-4 GvHD were administered standard systemic immunosuppressive therapy per institutional guidelines, in addition to the AP1903 dimerizer drug.
Three patients received iCasp9+ T cells after haplo-CD34+ stem cell transplantation (SCT), at dose levels between about 1×10^6 to about 3×10^6 cells/kg.

Structures are written as SMILES. Where “and” joins values, the source holds several entries; their conditions need not be identical. Equal entries are not always repeated. Entries after “also recorded” stand apart in the source; their conditions may differ. Where two headings read alike, the source gives them in different places. A value given as a limit tells only on which side of the number the result lay.

For the compound `CC[C@H](C(=O)N1CCCC[C@H]1C(=O)O[C@H](CCc1ccc(OC)c(OC)c1)c1cccc(OCC(=O)NCCNC(=O)COc2cccc([C@@H](CCc3ccc(OC)c(OC)c3)OC(=O)[C@@H]3CCCCN3C(=O)[C@@H](CC)c3cc(OC)c(OC)c(OC)c3)c2)c1)c1cc(OC)c(OC)c(OC)c1` (relative stereo) [AP1903, 2-Piperidinecarboxylic acid, 1-[(2S)-1-oxo-2-(3,4,5-trimethoxyphenyl)butyl]-, 1,2-ethanediylbis[imino(2-oxo-2,1-ethanediyl)oxy-3,1-phenylene[(1R)-3-(3,4-dimethoxyphenyl)propylidene]]ester, [2S-[1(R*),2R*[S[S*[1(R*),2R*]]]]]-(9Cl)], the “amount needed in vitro for effective signaling of cells” value in data set [1] was in the range of 10 to 100 nM. The “amount needed for effective signaling, converted” value in data set [1] (MW: 1412 Da) was in the range of 14 to 140 µg/L. Further, in data set [2] (1.0 mg/kg), the “duration of the adverse event” value is 32 min and the “onset of the adverse event after start of infusion” value is 3 min. Moreover, the “relation of plasma levels to dose” value in data set [2] (0.01-1.0 mg/kg) is reported as “directly proportional to dose”. In data set [2] (1 volunteer at the 1.0 mg/kg dosage), the “adverse event considered possibly related to AP1903” value is recorded as “vasodilatation”. In addition, the “plasma level as % of maximal concentration” value in data set [2] (2 hours post-dose) is given as about 7%. Besides, the “plasma level as % of maximal concentration” value in data set [2] (10 hours post-dose) is about 1%. In addition, the serious adverse events result in data set [2] (Phase 1 study in volunteers) is “No serious adverse events”. For the same compound, the safety and tolerability entry in data set [2] (all dose levels, 0.01 to 1.0 mg/kg) is “well-tolerated; also recorded: No significant adverse effects”. In data set [2] (following each treatment), the “incidence of adverse events” value is “very low”. Besides, the “severity of adverse events” value in data set [2] (human, in vivo) is “mild”. Moreover, the “mean Cmax / plasma concentrations” value in data set [2] (single IV infusion over 2 hours, 0.01-1.0 mg/kg dose range) is 0.01 to 1.275 µg/mL and 0.01 µg/mL. The “time to resolution of skin and liver aGvHD” value with CD3+ΔCD19+ cells (after AP1903 administration) is at most 24 h. In addition, in the data set with CD3+ΔCD19+ cells (within 30 minutes of infusion, patients with grade I/II aGvHD, 0.4 mg/kg), the “ablation of CD3+ΔCD19+ cells” value is listed as over 90%. Moreover, the “further reduction of CD3+ΔCD19+ cells” value in the data set with CD3+ΔCD19+ cells (within 24 hours) is “further log reduction”.
